Results reported in patent US11992012B2, “Diaminotriazine compounds” (BASF SE, priority 2018, dated 2024).

Assays:
Assay in all cases: greenhouse pre-emergence herbicidal test
Format in all cases: in vivo
Conditions in all cases: 250 g/ha, scale 0 to 100
Amaranthus retroflexus = tested on: Amaranthus retroflexus
From the text: (§1) The culture containers used were plastic flowerpots containing loamy sand with approximately 3.0% of humus as the substrate. The seeds of the test plants were sown separately for each species.
(§2) For the pre-emergence treatment, the active ingredients, which had been suspended or emulsified in water, were applied directly after sowing by means of finely distributing nozzles. The containers were irrigated gently to promote germination and growth and subsequently covered with transparent plastic hoods until the plants had rooted. This cover caused uniform germination of the test plants, unless this had been impaired by the active ingredients.
(§3) Depending on the species, the plants were kept at 10-25° C. or 20-35° C., respectively.
(§4) The test period extended over 2 to 4 weeks. During this time, the plants were tended, and their response to the individual treatments was evaluated.
(§5) Evaluation was carried out using a scale from 0 to 100. 100 means no emergence of the plants, or complete destruction of at least the aerial moieties, and 0 means no damage, or normal course of growth. A moderate herbicidal activity is given at values of at least 60, a good herbicidal activity is given at values of at least 70, and a very good herbicidal activity is given at values of at least 85.

Echinocloa crus-galli = tested on: Echinocloa crus-galli
From the text: as §1, §2, §3, §4, §5

Setaria faberi = tested on: Setaria faberi
From the text: The culture containers used were plastic flowerpots containing loamy sand with approximately 3.0% of humus as the substrate. The seeds of the test plants were sown separately for each species. For the pre-emergence treatment, the active ingredients, which had been suspended or emulsified in water, were applied directly after sowing by means of finely distributing nozzles. The containers were irrigated gently to promote germination and growth and subsequently covered with transparent plastic hoods until the plants had rooted. This cover caused uniform germination of the test plants, unless this had been impaired by the active ingredients. […] The test period extended over 2 to 4 weeks. During this time, the plants were tended, and their response to the individual treatments was evaluated. Evaluation was carried out using a scale from 0 to 100. 100 means no emergence of the plants, or complete destruction of at least the aerial moieties, and 0 means no damage, or normal course of growth.

Alopercurus myosuroides = tested on: Alopercurus myosuroides
From the text: as §1, §2, §3, §4, §5

Row | SMILES | herbicidal activity (Amaranthus retroflexus) [%] | herbicidal activity (Echinocloa crus-galli) [%] | herbicidal activity (Setaria faberi) [%] | herbicidal activity (Alopercurus myosuroides) [%]
1 | CC(C)(F)c1nc(N)nc(Nc2c(F)cccc2OCc2ccc(F)cc2)n1 [Example 6] | 100 | 100 | 100 | –
2 | CC(Oc1cccc(F)c1Nc1nc(N)nc(C(C)(C)F)n1)c1ccccc1 (stereo not drawn) [Example 23] | – | 100 | 75 | –
3 | CC(C)(C)c1nc(N)nc(Nc2c(F)cccc2OCc2ccccc2)n1 [Example 33] | – | 60 | – | 75
4 | CC(C)(F)c1nc(N)nc(Nc2c(F)cccc2OCc2nccs2)n1 [Example 36] | 100 | 75 | – | –
5 | CC1(c2nc(N)nc(Nc3c(F)cccc3OCc3ccccc3)n2)CCC1 [Example 52] | – | 90 | 85 | –
6 | COc1cc(F)cc(COc2cccc(F)c2Nc2nc(N)nc(C(C)(C)F)n2)c1 [Example 54] | – | 100 | – | 90
7 | CC(C)(F)c1nc(N)nc(Nc2c(F)cccc2OCc2cccc(OC(F)F)c2)n1 [Example 58] | 100 | 90 | 100 | –
8 | CC(C)C(F)c1nc(N)nc(Nc2c(F)cccc2OCc2ccccc2)n1 (stereo not drawn) [Example 65] | – | 95 | – | 95
9 | CC(C)(F)c1nc(N)nc(Nc2c(F)ccc(F)c2OCc2ccccc2)n1 [Example 72] | 100 | 100 | 100 | –
10 | COc1c(F)cc(COc2cccc(F)c2Nc2nc(N)nc(C(C)(C)F)n2)cc1F [Example 73] | 70 | 75 | – | –
11 | CC(C)(F)c1nc(N)nc(Nc2c(F)cccc2OCc2cc(F)cc(F)c2F)n1 [Example 74] | 80 | 85 | – | –
12 | CC(C)(F)c1nc(N)nc(Nc2c(OCc3cccc(F)c3)cc(F)c(F)c2F)n1 [Example 97] | 100 | 100 | 100 | –
13 | CC(C)(F)c1nc(N)nc(Nc2c(F)cccc2OCc2csc(Cl)c2)n1 [Example 110] | – | 90 | 80 | –
14 | COC(C)(C)c1nc(N)nc(Nc2c(F)cccc2OCc2cccc(F)c2)n1 [Example 114] | – | 90 | 90 | –
15 | CC(C)(F)c1nc(N)nc(Nc2c(OC(F)(F)c3ccccc3)cc(F)c(F)c2F)n1 [Example 116] | 100 | 100 | 100 | –
16 | COC(C)(C)c1nc(N)nc(Nc2c(F)cccc2OC(F)(F)c2ccccc2)n1 [Example 117] | 100 | 100 | 100 | –
17 | CC(C)(F)c1nc(N)nc(Nc2c(OC(F)(F)c3cccc(F)c3)cc(F)c(F)c2F)n1 [Example 129] | 100 | 100 | 100 | –
18 | CC(C)Oc1cccc(COc2cccc(F)c2Nc2nc(N)nc(C(C)(C)F)n2)c1 [Example 132] | 90 | 100 | 90 | –
19 | COC(C)(C)c1nc(N)nc(Nc2c(F)ccc(F)c2OCc2ccccc2)n1 [Example 135] | 100 | 100 | 100 | –
20 | CCc1ccc(COc2c(F)ccc(F)c2Nc2nc(N)nc(C(C)(C)F)n2)cc1 [Example 140] | – | 98 | 100 | –
21 | CC(C)(F)c1nc(N)nc(Nc2c(F)ccc(F)c2OC(F)(F)c2ccccc2)n1 [Example 142] | 100 | 100 | 100 | –
22 | CC(C)(F)c1nc(N)nc(Nc2c(F)ccc(Cl)c2OCc2ccccc2)n1 [Example 148] | 100 | 100 | 100 | –
23 | CC(C)=C(F)c1nc(N)nc(Nc2c(F)cccc2OCc2ccccc2)n1 [Example 152] | 100 | – | 90 | –
24 | CC(C)(F)c1nc(N)nc(Nc2c(F)cccc2OCc2cccs2)n1 [Example 154] | 100 | 100 | 100 | –

Row | SMILES | herbicidal activity (Amaranthus retroflexus) [%] | herbicidal activity (Echinocloa crus-galli) [%] | herbicidal activity (Setaria faberi) [%] | herbicidal activity (Alopercurus myosuroides) [%]
25 | CC(F)c1nc(N)nc(Nc2c(F)cccc2OCc2ccccc2)n1 (stereo not drawn) [Example 161] | – | 100 | 100 | –
26 | CCCC(F)c1nc(N)nc(Nc2c(OCc3ccccc3)cc(F)c(F)c2F)n1 (stereo not drawn) [Example 169] | 80 | – | 85 | –
27 | CCCC(F)c1nc(N)nc(Nc2c(F)ccc(F)c2OCc2ccccc2)n1 (stereo not drawn) [Example 170] | 90 | 100 | 90 | –
28 | CC(F)c1nc(N)nc(Nc2c(F)cccc2OC(F)(F)c2ccccc2)n1 (stereo not drawn) [Example 171] | 100 | 85 | 100 | –
29 | CC(C)(F)c1nc(N)nc(Nc2c(OCc3c(F)cccc3Cl)ccc(F)c2F)n1 [Example 176] | 80 | 100 | 100 | –
30 | COc1ccc(COc2ccc(F)c(F)c2Nc2nc(N)nc(C(C)(C)F)n2)cc1 [Example 186] | – | 98 | – | 85
31 | COC(C)c1nc(N)nc(Nc2c(F)ccc(F)c2OCc2ccccc2)n1 (stereo not drawn) [Example 191] | 95 | 100 | 100 | –
32 | COc1ccc(COc2c(F)ccc(F)c2Nc2nc(N)nc(C(C)(C)F)n2)cc1 [Example 192] | – | 100 | 100 | –
33 | CC(C)c1nc(N)nc(Nc2c(F)cccc2OCc2ccccc2)n1 [Example 194] | – | 100 | 70 | –
34 | CC(F)c1nc(N)nc(Nc2c(F)c(F)cc(F)c2OCc2ccccc2)n1 (stereo not drawn) [Example 209] | 100 | 100 | 100 | –
35 | COc1ccccc1COc1c(F)cc(F)c(F)c1Nc1nc(N)nc(C(C)F)n1 (stereo not drawn) [Example 210] | 100 | 100 | 100 | –
36 | COc1cccc(COc2c(F)cc(F)c(F)c2Nc2nc(N)nc(C(C)F)n2)c1 (stereo not drawn) [Example 211] | 100 | 100 | 100 | –
37 | COc1ccc(COc2c(F)cc(F)c(F)c2Nc2nc(N)nc(C(C)F)n2)cc1 (stereo not drawn) [Example 212] | 100 | 100 | 100 | –
38 | COC(C)(C)c1nc(N)nc(Nc2c(F)c(F)cc(F)c2OCc2ccccc2)n1 [Example 213] | 100 | 100 | 100 | –
39 | COc1cccc(COc2c(F)cc(F)c(F)c2Nc2nc(N)nc(C(C)(C)OC)n2)c1 [Example 215] | 100 | 98 | 98 | –
40 | Cc1cccc(COc2c(F)cc(F)c(F)c2Nc2nc(N)nc(C(C)F)n2)c1 (stereo not drawn) [Example 230] | 95 | 95 | 95 | –
41 | CC(C)(F)c1nc(N)nc(Nc2c(F)c(Br)cc(Br)c2OCc2ccccc2)n1 [Example 235] | 85 | 90 | 100 | –
42 | COC(C)c1nc(N)nc(Nc2c(F)c(F)cc(F)c2OCc2ccccc2C)n1 (stereo not drawn) [Example 237] | 95 | 100 | 95 | –
43 | COC(C)c1nc(N)nc(Nc2c(F)c(F)cc(F)c2OCc2cccc(C)c2)n1 (stereo not drawn) [Example 238] | 80 | 98 | 100 | –
44 | COC(C)c1nc(N)nc(Nc2c(F)c(F)cc(F)c2OCc2ccccc2F)n1 (stereo not drawn) [Example 240] | 100 | 90 | 95 | –
45 | COC(C)c1nc(N)nc(Nc2c(F)c(F)cc(F)c2OCc2cccc(F)c2)n1 (stereo not drawn) [Example 241] | 100 | 85 | 85 | –
46 | CCC(C)(F)c1nc(N)nc(Nc2c(F)c(F)cc(F)c2OCc2ccccc2)n1 (stereo not drawn) [Example 247] | 100 | 100 | 100 | –
47 | Nc1nc(Nc2c(F)c(F)cc(F)c2OCc2ccccc2)nc(C2(F)CCCCC2)n1 [Example 256] | 100 | 100 | 100 | –
48 | CC(C)(F)c1nc(N)nc(Nc2c(F)ccc(C#N)c2OCc2ccccc2)n1 [Example 259] | 100 | – | 100 | –
